Data taken from patent US20230364062A1, “METHOD OF TREATING MYELOID MALIGNANCIES” (Yeda Research and Development Co. Ltd., priority 2020, published 2023).

Key:
[1] = test system: AML2 SRSF2 (P95H) mutant cell line; assay: Cell viability assay (CellTiter-Glo), drug screen and dose response; format: cell-based, human; settings: validation and dose response after primary screen, 48 hours
Source text: (§1) Compound Libraries: Three commercial libraries were used in the screening process: the Bioactive library (New Selleck Collection 2020, n=3727), the Kinom Set (n=187), and the Epigenetic chemical probe library (Structural Genomics Consortium, n=97).
(§2) Cell viability assay: Compounds were dispensed in 384-well plates using an ECHO® 555 liquid handler (Labcyte) and sealed. On day of experiment, the concentrations of isogenic and respective wildtype cell lines were counted using a Countess™ II FL (Invtrogen™) and re-suspended at 40,000 cell/ml. 50 μL of medium was dispensed using a Multidrop™ Combi Reagent Dispenser (Thermo Fisher), bringing the total number of cells in each well to 2000. Cells were incubated for 48 hours. On day of measurement, plates were centrifuged and supernatant was removed using a Washer/Dispenser II (GNF Systems). A Washer/Dispenser II was then used to dispense CellTiter-Glo® (G7572, Promega) as per the manufacturer's instructions. The luminescence signal was then measured using a PHERAstar® FSX (BMG Labtech) and results were analyzed using Genedata Screener®. The viability of treated cells was normalized to a vehicle control, contained on each plate.
(§3) Next, a sensitivity screening of […] chemical compounds from three commercial libraries: the Bioactive collection (New Selleck Collection 2020, n=3727), the Kinom Set (n=187), and the Epigenetic chemical probe library (Structural Genomics Consortium, n=97) was carried out on the isogenic cell lines. Following a primary screen, compounds with higher cytotoxic efficacy in the mutant versus WT cells were chosen for further validation and dose response analysis. Both mutant MOLM14 and AML2 cell lines responded to various ROCK inhibitors (ROCKi), including, GSK429286A, GSK180736A, Y-39983 and specifically to RKI-1447.

[2] = test system: MOLM14 SRSF2 (P95H) mutant cell line; assay: as above; format: cell-based, human; settings: validation and dose response after primary screen, 48 hours
Source text: as §1, §2, §3

[3] = test system: MOLM14 SRSF2 mutant cell line; assay: Cell cycle analysis after RKI-1447; format: cell-based, human
[4] = test system: MOLM14 wild type cell line; assay: Cell cycle analysis after RKI-1447; format: cell-based, human; settings: 0.5 μM RKI-1447 compared to untreated control
Source text: (§4) Rho-associated protein kinases (ROCKs or Rho kinases) are key regulators of the actin cytoskeleton and are required for separating cells' duplicated genetic material during cell division to ensure proper partitioning of DNA in to daughter cells. Actin is also linked to RNA polymerase function and associated with many heterogeneous nuclear ribonucleoproteins, and may thus act to affect pre-mRNA processing and regulate transcription. Given this knowledge of ROCKs and actin, it was hypothesized that disrupting the function of ROCKs will result in cell cycle and RNA splicing alteration. In order to test this hypothesis, RNA sequencing and proteomics were performed on isogenic lines prior to and following exposure to RKI-1447. […] One of the significant up regulated protein is CDC20. CDC20 is an activator of anaphase-promoting complex/cyclosome (APC/C), and APC/Cdc 20 activity is critical for metaphase/anaphase transition.

[5] = test system: SRSF2 mutant cells; assay: Nuclear morphology and microtubule structure by confocal microscopy; format: cell-based, human; settings: SRSF2 mutant cells following RKI-1447 treatment
Source text: The nuclear morphology and microtubule structure of SRSF2 mutant cells was examined by confocal microscopy following RKI-1447 treatment. […] The surface area of the nucleus of mutant cells was considerably bigger than that of WT cells, and the sphericity was reduced (FIGS. 5B-D).

[6] = test system: MOLM14 SRSF2 mutant cells; assay: MOLM14 cell line xenograft model of AML in NSG mice; format: in vivo; settings: NSG mice transplanted with MOLM14 cell line model; compared to the control
[7] = test system: SRSF2 mutated AML; assay: AML-PDX models with SRSF2 mutations in NSG mice; format: in vivo; settings: two AML-PDX samples; 3 weeks of treatment from day 35; versus carrier control
Procedure: To evaluate whether SRSF2 mutated AML is sensitive to RKI-1447, the present inventors studied its effect in vivo with cell line and patient-derived xenograft model of AML. […] Two AML-PDX models with SRSF2 mutations were established that recapitulate the disease in vivo. NSG mice (n=5-10/sample) were injected with one to five million CD3− cells from two patients with SRSF2 mutated AML through femur. On day 35 the animals were randomized to RKI-1447 or a carrier control. Following 3 weeks of treatment week, engraftment of AML cells in BM was evaluated using flow cytometry. Both lymphoid (CD19+ B cells) and myeloid lineages (CD45dimCD33+) are detected, but dominantly are myeloid graft, in our AML-PDX models. […] To determine the grafts origin from srsf2 mutated LSC/ pre-leukaemic HSCs, human cells (CD45+) were isolated from the total BM cells and amplicon sequence of SRSF2 was performed.

[8] = test system: isogenic SRSF2 mutant and wild-type cell lines; assay: RNA sequencing and proteomics with pre ranked GSEA before and after RKI-1447; format: cell-based, human; settings: both mutant and wild-type cells after exposure to RKI-1447
Source text: as §4

[9] = 0.5 μM RKI-1447 compared to untreated control, MOLM14 SRSF2 mutant

SMILES | response of mutant cell line to ROCK inhibitor (cytotoxic efficacy mutant versus WT) [1] | response of mutant cell line to ROCK inhibitor (cytotoxic efficacy mutant versus WT) [2] | cell cycle difference in MOLM14 SRSF2 mutant relative to wild type ([3]; 0.5 μM RKI-1447, P<0.01) | percentage of G0/G1 phase cells [3, 9] | percentage of G2/M and S phase cells [3, 9] | percentage of G0/G1 phase cells [4] | percentage of G2/M and S phase cells [4] | apoptosis [5] | nuclear morphology [5] | engraftment (number of CD45+ cells) [6] | engraftment rate of AML cells in BM (flow cytometry) [7] | pre ranked GSEA, regulated pathways [8]
CC1=C(C(=O)Nc2ccc3[nH]ncc3c2)C(c2ccc(F)cc2)NC(=O)N1 (stereo not drawn) [GSK180736A] | responded | responded | – | – | – | – | – | – | – | – | – | –
CC1=C(C(=O)Nc2cc3cn[nH]c3cc2F)C(c2ccc(C(F)(F)F)cc2)CC(=O)N1 (stereo not drawn) [GSK429286A] | responded | responded | – | – | – | – | – | – | – | – | – | –
O=C(NCc1cccc(O)c1)Nc1nc(-c2ccncc2)cs1 [RKI-1447] | responded | responded | more pronounced | decrease in the percentage | higher percentage | decrease in the percentage | higher percentage | apoptosis | nucleus invagination and deformations | significant decrease of engraftment | significant lower engraftment rate | cell cycle is one of the most significantly up-regulated pathways
C[C@@H](N)c1ccc(C(=O)Nc2ccnc3[nH]ccc23)cc1 [Y-39983] | responded | responded | – | – | – | – | – | – | – | – | – | –
